In patent US20260183301A1, “TREATING DISEASES AND DISORDERS WITH IRAK4-MODIFYING COMPOUNDS” (Curis, Inc., priority 2022, published 2026):
Entries after “also recorded” stand apart in the source; their conditions may differ.

Assays:
NF-kappaB p-p50 = assay: IHC of NF-kappaB p-p50 in paired tumor biopsies of NHL patients before and after treatment; assay type: in vivo, human; conditions: paired tumor biopsy samples (3 cases) before and after treatment
Procedure: Formalin-fixed, paraffin-embedded sections of human tonsil and lymphoma were used. Tissue sections (5 μm) were deparaffinized, and antigen retrieval was carried out at 90-100° C. in citrate buffer for 10-40 min. The sections were incubated in 1% […] for 10 minutes to quench endogenous tissue peroxidase. Tissue sections were then incubated with primary NF-κB p-p50-specific antibody (at 1:300 dilution) for approximately 16 h at 4° C. The primary NF-κB p-p50-specific antibody used NF-κB p-p50 (S337), sc-271908 from Santa Cruz Biotechnology.
The slides were stained using a standard EnVision+System-HRP kit (DAKO, Carpinteria, CA) according to the manufacture's protocol. Immunohistochemical reactions were developed with diaminobenzidine as the chromogenic peroxidase substrate, and slides were counterstained with hematoxylin. Negative control samples included replacement of the primary antibody with nonimmune IgG1 (Dako).

[1] = system: in vivo models of non-Hodgkin's lymphoma; assay: In vivo models of non-Hodgkin's lymphoma: tumor growth; conditions: FIGS. 22A-C, each model
THP-1 xerographs = assay: THP-1 leukemic xerographs: disease burden; assay type: in vivo; conditions: 6 weeks of treatment at 12.5 mg/kg
AML or high risk MDS = assay: Phase 1 study in AML or high risk MDS: marrow response; assay type: in vivo, human
Procedure: This study will be conducted in 2 parts: an initial dose escalation and dose expansion phase. […] Three patients with AML or MDS will be enrolled at the designated dose. If none of the first 3 patients experience a DLT during the first cycle, patients may be enrolled into the next higher dose level of 300 mg bid until a safe and effective RP2D is established.
This study is expected to enroll approximately 18 patients to establish the initial RP2D.
The major study inclusion and exclusion criteria are as follows: Relapsed or refractory AML (primary or secondary, including treatment-related) after at least one standard treatment (including chemotherapy, re-induction therapy or stem cell transplantation) based on the assessment of the investigator or high/very high risk relapsed/refractory MDS (IPSS—R criteria), following at least 6 cycles of hypomethylating agents [HMA] or evidence of early progression.

Cc1cc(-c2nc(C(=O)Nc3cc4oc(N5CCOCC5)nc4nc3N3CC[C@@H](O)C3)co2)ccn1 [Compound 1, emavusertib]
NF-kappaB p-p50 expression in tumors (NF-kappaB p-p50): significant downregulation; also recorded: inhibited
tumor growth [1]: reduced tumor growth
disease burden (THP-1 xerographs): decreased the disease burden
marrow blasts (AML or high risk MDS; all initial patients, cycle 1): marrow blast reduction
marrow complete responses (AML or high risk MDS; initial patients, cycle 1): several marrow complete responses
clinical activity (AML or high risk MDS; relapsed/refractory AML and high-risk MDS, ongoing Phase 1 study): clinical activity
